Read-outs that look alike come from different tables or passages of the source.
Assays:
human washed platelets [1] = experiment: Platelet aggregation triggered by arachidonic acid (light transmittance aggregometry); type: cell-based; conditions: for Effect on arachidonic acid-dependent platelet aggregation: 25 μM arachidonic acid, human washed platelets; for Plt aggregation IC50 ± S.E.M / IC50: human washed platelets 0.4 x 10^9 plt/ml, inhibitor 1 min before 25 μM arachidonic acid, n = 3–4; for IC50: read-out: Plt aggregation IC50 ± S.E.M
Protocol: Figure 2 Aggregation curves of inhibitory compounds. Platelet aggregation was performed on human washed platelets. Platelets (0.4 × 10^9 plt/ml) were treated with increasing concentrations of each inhibitor for 1 min prior to the addition of 25 μM of arachidonic acid for 2 min. Results represent aggregation curves of compound 3 (A), compound 4 (B), compound 7 (C), compound 8 (D), and compound 9 (E). Aggregation curves are representative of at least 4 experiments with similar results.
Slopes of aggregation curves were analyzed by Grafit 7 software and inhibition curves were obtained. (A) represents compounds of type I and (B) compounds of type II. […] Results correspond to mean ± S.E.M. for 3–5 experiments.
(§1) Venous blood was obtained from healthy volunteers who had not ingested any drugs for the last 14 days and after informed consent in accordance with the Institutional Review Board (IRB) of the American University of Beirut (Approval # BioCh.AH.03). Washed platelets were prepared as described previously. Briefly, 20 ml of peripheral blood was withdrawn on ACD-C (1 volume for 9 volumes of blood) and centrifuged at 120 g for 15 min at room temperature (RT) to obtain platelet-rich plasma. Platelet-rich plasma was further centrifuged at 1,200 g for 15 min at RT, and the platelet pellet obtained was washed by Tyrode buffer solution containing 0.1 μM of PGE1 and further centrifuged at 1,200 g for 15 min at RT. […] Aggregation of washed-platelets was determined using light transmittance aggregometry (Chrono-Log Corp., Havertown, PA). 400 μl of platelets (0.4 x 10^9plt/ml) were preincubated for 1 min at 37 °C in the absence or presence of inhibitors prior to the addition of 25 μM of arachidonic acid, which was controlled as optimal in our conditions. In some experiments, platelets were triggered with 1 μM U46619, a TX receptor agonist, or 0.5 μg/ml collagen, a concentration we checked in our conditions to induce COX-dependent platelet aggregation. TXB2 was measured in the supernatant by enzyme immunoassay.
(§2) Aggregation data were expressed after defining the slope for each aggregation curve, which better reflects the rate of the platelet reaction, using the Born’s method. Curve fitting and calculation of the IC50 values were done using Grafit 7 software (Erithacus software, Staines, UK). Results of TXB2 and PGE2 measurement were expressed as the mean ± S.E.M. for at least 3 different experiments and statistical analysis was performed using Sigma Plot (Systat Software Inc., San Jose, CA). Autoradiograms obtained from western blot analyses were scanned using Epson 1680 pro scanner and densitometric analysis was performed using Scion Image (Scion Corporation, MD).

human COX-1 = biological target: T1, human COX-1 (Homo sapiens, UniProt P23219); experiment: COX-1 activity (PGE2 by enzyme immunoassay) in COS-7 cells overexpressing human COX-1; type: cell-based; conditions: COS-7 cells overexpressing human COX-1, 30 min compound then 25 μM arachidonic acid 30 min, n = 3-4, read-out: COX-1 activity IC50 ± S.E.M
T1 construct: expressed in transfected cells; host or cells: COS-7
Protocol: Figure 4 Inhibition of COX-1 activity. Human COX-1 was overexpressed in COS-7 cells. […] PGE2 was measured in the supernatant by enzyme immunoassay. Results were expressed as percentage of PGE2 in arachidonic acid treated samples which was attributed a value of 100. Fitting of curves was done using Grafit software. Results correspond to mean ± S.E.M. for 3 experiments. […] Insert represents Western blot analysis of COX-1 using selective monoclonal COX-1 in untransfected and pcDNA3-COX-1transfected cells.
as §2

thromboxane receptor = biological target: T2, thromboxane receptor (Homo sapiens, UniProt P21731); experiment: Platelet aggregation in response to TX receptor agonist U46619; type: cell-based; conditions: 50 μM compound, 1 μM U46619
T2 construct: Venous blood was obtained from healthy volunteers; endogenous in cells; host or cells: washed human blood platelets
T2 sequence (P21731 1-343): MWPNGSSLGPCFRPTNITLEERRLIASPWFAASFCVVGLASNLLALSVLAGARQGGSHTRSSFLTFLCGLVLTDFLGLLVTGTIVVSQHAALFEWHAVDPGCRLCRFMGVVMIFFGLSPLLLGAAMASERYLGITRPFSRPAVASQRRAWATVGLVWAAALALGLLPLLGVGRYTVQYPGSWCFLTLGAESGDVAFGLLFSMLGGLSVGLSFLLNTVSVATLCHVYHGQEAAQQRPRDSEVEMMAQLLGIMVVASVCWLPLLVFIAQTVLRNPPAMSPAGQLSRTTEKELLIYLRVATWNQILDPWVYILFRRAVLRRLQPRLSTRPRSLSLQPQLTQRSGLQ
Protocol: Figure 7 Effect of inhibitory compounds on platelet aggregation in response to TX receptor agonist, U46619. Platelets (0.4x 10^9 plt/ml) were pretreated with 50 μM of inhibitory compounds 3, 4, 7, 8 and 9 then triggered with 1 μM U46619, a thromboxane receptor agonist. Aggregation curves of compounds of type I (A) and type II (B) are representative of 2 experiments with similar results.
as §1

[2] = test system: COS-7 cells overexpressing COX-1; experiment: WST-1 viability assay; conditions: 25 and 50 μM
Protocol: We used COS-7 cells overexpressing human COX-1. […] In these cells which express only COX-1, arachidonic acid is metabolized into prostaglandin (PG) H2 which will consequently breakdown into PGE2. Measurement of PGE2 under these conditions will reflect COX-1 activity [18, 19].
COS-7 cells were grown using DMEM-medium containing 10% fetal bovine serum (FBS). Cells were transfected in suspension with pcDNA3-COX-1 plasmid using FuGENE® 6 transfection reagent at a ratio of 3:1 (FuGENE: DNA, v/w) and then cultured in DMEM media + 10% FBS in 12-well plates. […] PGE2 was measured in the supernatants by enzyme immunoassay [23]. Cells were washed twice with PBS and lysed in lysis buffer. […] Briefly, SDS polyacrylamide electrophoresis was performed using 8% gels followed by protein transfer using a semi-dry transfer machine.

human washed platelets [3] = experiment: Platelet aggregation induced by collagen; type: cell-based; conditions: 0.5 μg/ml collagen
Protocol: Figure 6 Effect of inhibitory compounds on platelet aggregation and TXB2 level formation in response to collagen. […] TXB2 levels were measured in the supernatant of platelets (C). Results represent 3 experiments.
as §1

T1 sequence (P23219 24-599): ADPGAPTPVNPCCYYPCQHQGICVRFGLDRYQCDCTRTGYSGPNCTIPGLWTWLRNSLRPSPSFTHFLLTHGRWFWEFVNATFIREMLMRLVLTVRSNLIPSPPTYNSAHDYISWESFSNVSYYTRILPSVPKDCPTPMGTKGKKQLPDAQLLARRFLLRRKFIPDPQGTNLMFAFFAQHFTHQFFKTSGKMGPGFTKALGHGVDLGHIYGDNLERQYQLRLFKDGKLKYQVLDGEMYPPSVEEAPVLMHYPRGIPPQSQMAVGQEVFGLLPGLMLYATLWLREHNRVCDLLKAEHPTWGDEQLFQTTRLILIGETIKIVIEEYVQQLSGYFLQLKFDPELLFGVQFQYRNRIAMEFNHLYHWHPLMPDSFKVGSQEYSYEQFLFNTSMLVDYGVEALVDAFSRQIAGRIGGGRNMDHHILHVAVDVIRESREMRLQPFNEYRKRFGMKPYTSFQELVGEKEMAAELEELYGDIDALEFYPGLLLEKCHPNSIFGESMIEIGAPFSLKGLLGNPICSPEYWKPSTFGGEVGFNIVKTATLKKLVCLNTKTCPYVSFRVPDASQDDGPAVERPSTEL

Structure (SMILES) | Effect on arachidonic acid-dependent platelet aggregation (human washed platelets [1]) | Plt aggregation IC50 ± S.E.M (human washed platelets [1]) | IC50 (human COX-1) | Thromboxane receptor-dependent platelet aggregation (thromboxane receptor) | Toxicity in WST-1 viability assay [2] | Platelet aggregation induced by collagen (human washed platelets [3]; 50 μM compound) | IC50 (human washed platelets [1]) | Platelet aggregation induced by collagen (human washed platelets [3]; 25 μM ibuprofen) | IC50 (human washed platelets [1]; Platelet)
COc1ccc(C(O)c2ccccc2)cc1OC (stereo not drawn) [Compound 10] | completely abolished the inhibitory activity | No inhibition |  |  |  |  |  |  | 
COc1cc(C(O)c2ccc(F)cc2)ccc1O (stereo not drawn) [Compound 8] | significant inhibitory activities |  | 6.5 ± 0.2 µM | None of the compounds 3, 4, 7, 8 and 9 were able to act | absence of toxicity | blocked platelet aggregation induced by collagen | 13.4 ± 0.5 µM |  | 
CCCCCCCCCC(O)c1ccc(O)c(OC)c1 (stereo not drawn) [Compound 5] | loss of the inhibitory activity |  |  |  |  |  | 97.6 ± 83.5 µM |  | 
COc1cc(C(C)(O)c2ccccc2)ccc1O (stereo not drawn) [Compound 9] |  |  | 8.1 ± 1.7 µM | None of the compounds 3, 4, 7, 8 and 9 were able to act | absence of toxicity | blocked platelet aggregation induced by collagen | 11.3 ± 4.8 µM |  | 
CCCCC(O)c1ccc(O)c(OC)c1 (stereo not drawn) [Compound 4] |  |  | 12.1 ± 2.3 µM | None of the compounds 3, 4, 7, 8 and 9 were able to act | absence of toxicity | blocked platelet aggregation induced by collagen | 14.2 ± 5.7 µM |  | 
COc1cc(C(O)c2ccccc2)ccc1O (stereo not drawn) [Compound 7] | significant inhibitory activities |  | 1.3 ± 0.5 µM | None of the compounds 3, 4, 7, 8 and 9 were able to act | absence of toxicity | blocked platelet aggregation induced by collagen | 8.5 ± 1.2 µM |  | 
COc1cc(C(O)C2CCCC2)ccc1O (stereo not drawn) [Compound 6] | loss of the inhibitory activity |  |  |  |  |  | 41.2 ± 0.7 µM |  | 
CCCCCC(O)c1ccc(O)c(OC)c1 (stereo not drawn) [Compound 3] |  |  | 2.2 ± 0.7 µM | None of the compounds 3, 4, 7, 8 and 9 were able to act | absence of toxicity | blocked platelet aggregation induced by collagen | 7.5 ± 0.8 µM |  | 
CCCCCC(O)c1cccc(C=NO)c1 (stereo not drawn) [Compound 1] | no inhibitory effect | No inhibition |  |  |  |  |  |  | 
CCCCCC(O)c1cccc(C(=O)O)c1 (stereo not drawn) [Compound 2] | no inhibitory effect | No inhibition |  |  |  |  |  |  | 
CC(C)Cc1ccc(C(C)C(=O)O)cc1 (stereo not drawn) [Ibuprofen, reference compound] |  |  |  |  |  |  |  | strongly inhibited | 0.5 ± 0.11 µM
